Patent publication US9597407B2, “Targeted antimicrobial moieties” (C3 Jian, Inc., priority 2009, dated 2017)
Entries after “also recorded” stand apart in the source; their conditions may differ.

System: bacteria
Experiment: Binding of targeting peptides to microorganisms (Table 3)
Details: preferably 1x PBS
[1] = peptide binding in aqueous buffers that varied depending on peptide solubility
[2] = peptide binding in aqueous buffers varied by peptide solubility
[3] = microorganism bound by the targeting peptide, binding in aqueous buffers chosen by peptide solubility

PF-714 (FVVTQRMLRMYKK; Peptide with targeting and/or antimicrobial activity)
Target(s) (microorganism bound by the targeting peptide) [1]: L. pneumophila

1T-34 (AFWLNILLTLLGYIPGIVHAVYIIAKR; Peptide with targeting and/or antimicrobial activity) [Peptide 1T-34]
Target(s) (microorganism bound by the targeting peptide) [2]: S. aureus; also recorded: S. epidermidis; also recorded: C. jeikeium; also recorded: C. xerosis; also recorded: C. striatum; also recorded: P. aeruginosa

PF-673 (VRRLRM; Peptide with targeting and/or antimicrobial activity)
Target(s) (microorganism bound by the targeting peptide) [1]: S. mutans; also recorded: E. coli

PF-138 (AVHHSLLFR; Peptide with targeting and/or antimicrobial activity)
Target(s) [3]: S. epidermidis and M. luteus and P. mirabilis and E. coli and C. albicans and MRSA and C. jeikeium and C. jejuni

1T-38 (VMFVLTRGRSPRPMIPAY; Peptide with targeting and/or antimicrobial activity) [Peptide 1T-38]
Target(s) (microorganism bound by the targeting peptide) [2]: S. mutans; also recorded: S. aereus; also recorded: S. epidermidis; also recorded: C. jeikeium; also recorded: C. xerosis; also recorded: C. striatum; also recorded: P. aeruginosa

1T-42 (TVLDWLSLALATGLFVYLLVALLRADRA; Peptide with targeting and/or antimicrobial activity) [Peptide 1T-42]
Target(s) (microorganism bound by the targeting peptide) [2]: S. aureus; also recorded: S. epidermidis; also recorded: C. xerosis; also recorded: C. striatum; also recorded: P. aeruginosa

1T-71 (KIDTNQWPPNKEG; Peptide with targeting and/or antimicrobial activity) [Peptide 1T-71]
Target(s) (microorganism bound by the targeting peptide) [2]: P. aeruginosa

1T-264 (LEGKFYMAEDFDKTPECFKDYV; Peptide with targeting and/or antimicrobial activity) [Peptide 1T-264]
Target(s) (microorganism the targeting peptide binds, binding in aqueous buffers that varied with peptide solubility): S. sanguinis

1T-78 (FFKTIFVLILGALGVAAGLYIEKNYIDK; Peptide with targeting and/or antimicrobial activity) [Peptide 1T-78]
Target(s) (microorganism bound by the targeting peptide) [2]: S. pneumoniae

1T-114 (RQAPGPGLVTITAACSAPGSRSR; Peptide with targeting and/or antimicrobial activity) [Peptide 1T-114]
Target(s) (microorganism bound by the targeting peptide) [2]: A. naeslundii; also recorded: P. gingivalis; also recorded: S. epidermidis; also recorded: S. gordonii; also recorded: S. mitis; also recorded: S. mutans; also recorded: S. oralis; also recorded: S. sanguinis

PF-213 (MTTGVDFIIEKV; Peptide with targeting and/or antimicrobial activity)
Target(s) [3]: S. epidermidis

PF-712 (QIYRHVHKVQAKSANLRLY; Peptide with targeting and/or antimicrobial activity)
Target(s) (microorganism bound by the targeting peptide) [1]: S. mutans; also recorded: E. coli

PF-323 (ARESIEKSHVPVDATIVGVVDSFEVFDE; Peptide with targeting and/or antimicrobial activity)
Target(s) [3]: S. mutans

PF-218 (SETPEKPVGTFFYSIYYKIIL; Peptide with targeting and/or antimicrobial activity)
Target(s) [3]: S. epidermidis; also recorded: M. luteus; also recorded: P. aeruginosa; also recorded: A. baumannii

1T-90 (RNVIGQVL; Peptide with targeting and/or antimicrobial activity) [Peptide 1T-90]
Target(s) (microorganism bound by the targeting peptide) [2]: S. gordonii; also recorded: S. mitis; also recorded: S. mutans; also recorded: S. oralis; also recorded: S. sanguinis

PF-766 (DAYYAQLRKQKEIEEGA; Peptide with targeting and/or antimicrobial activity)
Target(s) (microorganism bound by the targeting peptide) [1]: S. epidermidis and M. luteus and C. albicans and MRSA and E. faecalis and C. jeikeium

1T-7 (SQRIIEPVKSPQPYPGFSVS; Peptide with targeting and/or antimicrobial activity) [Peptide 1T-7]
Target(s) (microorganism bound by the targeting peptide) [2]: M. xanthus
